Results taken from patent publication US9822130B2, “Triazolo-pyrazinyl derivatives useful as soluble guanylate cyclase activators” (Merck Sharp & Dohme Corp., priority 2014, dated 2017).

Molecular target: T1, sGC α1/β1 heterodimer stably expressed in CHO-K1 cell line (CHO-K1/sGC) (Homo sapiens, UniProt Q02108+Q02153)
T1 construct: expressed in transfected cells
T1 sequence (Q02108 1-690): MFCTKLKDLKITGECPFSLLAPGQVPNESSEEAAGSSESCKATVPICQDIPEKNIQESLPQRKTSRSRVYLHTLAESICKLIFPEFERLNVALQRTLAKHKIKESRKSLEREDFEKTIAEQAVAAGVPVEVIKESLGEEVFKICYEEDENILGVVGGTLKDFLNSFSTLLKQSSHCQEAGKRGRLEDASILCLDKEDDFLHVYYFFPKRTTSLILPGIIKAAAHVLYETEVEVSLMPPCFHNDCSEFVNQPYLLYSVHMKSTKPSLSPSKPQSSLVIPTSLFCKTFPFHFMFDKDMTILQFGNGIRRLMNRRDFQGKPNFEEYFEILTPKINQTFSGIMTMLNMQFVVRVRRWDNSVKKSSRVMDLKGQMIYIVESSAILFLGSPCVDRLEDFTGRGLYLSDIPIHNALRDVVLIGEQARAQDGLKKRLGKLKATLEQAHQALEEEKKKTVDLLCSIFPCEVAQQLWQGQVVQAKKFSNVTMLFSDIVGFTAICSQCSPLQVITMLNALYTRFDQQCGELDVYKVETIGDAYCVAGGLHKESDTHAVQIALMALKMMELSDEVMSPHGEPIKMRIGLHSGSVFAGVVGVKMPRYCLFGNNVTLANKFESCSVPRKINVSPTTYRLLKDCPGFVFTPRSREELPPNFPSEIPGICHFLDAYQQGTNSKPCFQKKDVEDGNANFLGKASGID
T1 sequence (Q02153 1-619): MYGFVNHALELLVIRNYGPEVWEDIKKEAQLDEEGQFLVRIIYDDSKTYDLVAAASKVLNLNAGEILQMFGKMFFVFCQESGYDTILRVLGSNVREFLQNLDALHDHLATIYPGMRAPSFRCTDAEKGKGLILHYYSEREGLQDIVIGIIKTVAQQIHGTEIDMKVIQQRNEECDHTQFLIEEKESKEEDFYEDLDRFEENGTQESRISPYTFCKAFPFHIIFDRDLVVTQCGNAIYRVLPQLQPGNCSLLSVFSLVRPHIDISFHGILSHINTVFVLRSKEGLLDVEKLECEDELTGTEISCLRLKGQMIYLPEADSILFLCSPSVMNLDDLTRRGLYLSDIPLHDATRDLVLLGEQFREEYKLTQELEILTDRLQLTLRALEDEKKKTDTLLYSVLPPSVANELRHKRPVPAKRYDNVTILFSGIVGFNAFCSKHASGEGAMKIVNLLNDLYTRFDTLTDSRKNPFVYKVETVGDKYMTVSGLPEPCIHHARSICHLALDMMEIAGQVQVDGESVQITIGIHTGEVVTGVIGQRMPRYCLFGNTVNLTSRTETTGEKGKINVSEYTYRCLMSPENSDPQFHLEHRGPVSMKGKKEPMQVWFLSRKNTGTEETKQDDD
Assay: Cell-based sGC Functional Assay (CASA Assay), cGMP generation
Details: CHO-K1/sGC cells, 1 hr at 37° C., cGMP by HTRF, presence or absence of 1 μM DETA-NO not given; for EC50: 4P fit, read-out: IP (nM) (inflection point)
From the text: sGC is a heme-containing enzyme that converts GTP to secondary messenger cGMP. Increases in cGMP levels affect several physiological processes including vasorelaxation through multiple downstream pathways. […] Heme-dependent activators (HDAs) preferentially activate sGC containing a ferrous heme group. To determine the effect of sGC activators on enzyme activity, the CASA assay was developed to monitor the generation of cGMP in a cell line that stably expresses the heterodimeric sGC protein.
A CHO-K1 cell line stably expressing the sGC α1/β1 heterodimer was generated using a standard transfection protocol. CHO-K1 cells were transfected with plasmids pIREShyghsGCα1 and pIRESneo-hsGCβ1 simultaneously using FUGENE reagent. Clones that stably express both subunits were selected with hygromycin and neomycin for ˜2 weeks. Clone #7 was chosen for the assay and was designated CHO-K1/sGC. CHO-K1/sGC cells were maintained in F-K12 medium containing 10% heat-inactivated Fetal Bovine Serum (FBS), 100 μg/mL penicillin/streptomycin, 0.5 mg/mL hygromycin and 0.25 mg/mL G418. The cells were then cryopreserved in LN2. On the day of the assay, cells thawed and resuspended in EBSS Assay Buffer (Sigma, E3024) supplemented with 5 mM MgCl2, 10 mM HEPES (4-(2-hydroxyethyl)piperazine-1-ethanesulfonic acid) and 0.05% BSA (bovine serum albumin) (EAB) and cell density was then adjusted to 4×10^5/mL with EAB, IBMX (3-isobutyl-1-methylxanthin, 0.5 mM) was added to inhibit degradation of cGMP. Compounds were diluted from DMSO stock solutions and added to the assay at a final DMSO concentration of 2.5%. Cells were incubated with compounds in the presence and absence of 1 μM of Diethylenetriamine/nitric oxide adduct (DETA-NO; Sigma, 17018) for 1 hr at 37° C. At the end of the incubation period, the reaction was terminated and the cells were lysed with the detection reagents from Cisbio Kits. The level of intracellular cGMP was determined using an HTRF-based assay kit (CisBio, 62GM2PEC), which detects the displacement of a fluorescence labeled cGMP from its specific antibody. The cGMP produced by test compounds was directly compared to the maximum cGMP production (this value was set to equal 100% activation.) of the published sGC-HDA Compound A:
[drawing 300] (Example 1 in WO 2010/065275, published Jun. 10, 2010). The test compounds' activities were then expressed as a percentage of Compound A, the standard in every experiment. This percent activation was calculated either in the presence or absence of DETA-NO which was then plotted. IP and maximum fold induction was derived using ADA analysis software for 4P fit.
The compounds in the Examples of the instant invention had inflection points (IP) less than or equal to 10 μM and more particularly less than or equal to about 1 μM.

| Compound | EC50 | Emax (read-out: % Act. (percent activation relative to maximum cGMP production of Compound A = 100%)) |
| --- | --- | --- |
| Nc1nc(-c2cn3ncnc3c(CCC(F)(F)C(F)(F)F)n2)nc2c1C(c1cncc(F)c1)(C1CC1)C(=O)N2 (centres unmarked) [Example 8B, 4-amino-5-cyclopropyl-5-(5-fluoropyridin-3-yl)-2-(8-(3,3,4,4,4-pentafluorobutyl)-[1,2,4]triazolo[1,5-a]pyrazin-6-yl)-5H-pyrrolo[2,3-d]pyrimidin-6(7H)-one] | 294 nM | – |
| CC1(c2cncc(F)c2)C(=O)Nc2nc(-c3cn4ncnc4c(CCC(F)(F)C(F)(F)F)n3)nc(N)c21 (centres unmarked) [Example 9A, 4-amino-5-(5-fluoropyridin-3-yl)-5-methyl-2-(8-(3,3,4,4,4-pentafluorobutyl)-[1,2,4]triazolo[1,5-a]pyrazin-6-yl)-5H-pyrrolo[2,3-d]pyrimidin-6(7H)-one] | 63 nM | – |
| CC1(c2ccc(Cl)cc2)C(=O)Nc2nc(-c3cn4ncnc4c(CCC(F)(F)C(F)(F)F)n3)nc(N)c21 (centres unmarked) [Example 10A, 4-amino-5-(4-chlorophenyl)-5-methyl-2-(8-(3,3,4,4,4-pentafluorobutyl)-[1,2,4]triazolo[1,5-a]pyrazin-6-yl)-5H-pyrrolo[2,3-d]pyrimidin-6(7H)-one] | 15.8 nM | – |
| CC1(c2ccccn2)C(=O)Nc2nc(-c3cn4ncnc4c(CCC(F)(F)C(F)(F)F)n3)nc(N)c21 (centres unmarked) [Example 11B, 4-amino-5-methyl-2-(8-(3,3,4,4,4-pentafluorobutyl)-[1,2,4]triazolo[1,5-a]pyrazin-6-yl)-5-(pyridin-2-yl)-5H-pyrrolo[2,3-d]pyrimidin-6(7H)-one] | 25.2 nM | – |
| CC1(c2ccccc2)C(=O)Nc2nc(-c3cn4ncnc4c(CCC(F)(F)C(F)(F)F)n3)nc(N)c21 (centres unmarked) [Example 12B, 4-amino-5-methyl-2-(8-(3,3,4,4,4-pentafluorobutyl)-[1,2,4]triazolo[1,5-a]pyrazin-6-yl)-5-phenyl-5H-pyrrolo[2,3-d]pyrimidin-6(7H)-one] | 11.1 nM | – |
| CC1(c2ccc(C3CC3)nc2)C(=O)Nc2nc(-c3cn4ncnc4c(CCC(F)(F)C(F)(F)F)n3)nc(N)c21 (centres unmarked) [Example 13B, 4-amino-5-(6-cyclopropylpyridin-3-yl)-5-methyl-2-(8-(3,3,4,4,4-pentafluorobutyl)-[1,2,4]triazolo[1,5-a]pyrazin-6-yl)-5H-pyrrolo[2,3-d]pyrimidin-6(7H)-one] | 80.6 nM | – |
| CC1(c2cccc(F)c2)C(=O)Nc2nc(-c3cn4ncnc4c(CCC(F)(F)C(F)(F)F)n3)nc(N)c21 (centres unmarked) [Example 14B, 4-amino-5-(3-fluorophenyl)-5-methyl-2 (8-(3,3,4,4,4-pentafluorobutyl)-[1,2,4]triazolo[1,5-a]pyrazin-6-yl)-5H-pyrrolo[2,3-d]pyrimidin-6(7H)-one] | 5.5 nM | 90% |
| Nc1nc(-c2cn3ncnc3c(CCC(F)(F)C(F)(F)F)n2)nc2c1C(c1ccc(C(F)(F)F)cn1)(C1CC1)C(=O)N2 (centres unmarked) [Example 15A, 4-amino-5-cyclopropyl-2-(8-(3,3,4,4,4-pentafluorobutyl)-[1,2,4]triazolo[1,5-a]pyrazin-6-yl)-5-(5-(trifluoromethyl)pyridin-2-yl)-5H-pyrrolo[2,3-d]pyrimidin-6(7H)-one] | 316 nM | – |
| CC1(c2ccc(C#N)cn2)C(=O)Nc2nc(-c3cn4ncnc4c(CCC(F)(F)C(F)(F)F)n3)nc(N)c21 (centres unmarked) [Example 18A, 6-(4-amino-5-methyl-6-oxo-2-(8-(3,3,4,4,4-pentafluorobutyl)-[1,2,4]triazolo[1,5-a]pyrazin-6-yl)-6,7-dihydro-5H-pyrrolo[2,3-d]pyrimidin-5-yl)nicotinonitrile] | 38.6 nM | – |
| Cc1ccc(C2(C)C(=O)Nc3nc(-c4cn5ncnc5c(CCC(F)(F)C(F)(F)F)n4)nc(N)c32)nc1 (centres unmarked) [Example 19B, 4-amino-5-methyl-5-(5-methylpyridin-2-yl)-2-(8-(3,3,4,4,4-pentafluorobutyl)-[1,2,4]triazolo[1,5-a]pynizin-6-yl)-5H-pyrrolo[2,3-d]pyrimidin-6(7H)-one] | 14.7 nM | – |
| CC(C)n1cc(C2(C)C(=O)Nc3nc(-c4cn5ncnc5c(CCC(F)(F)C(F)(F)F)n4)nc(N)c32)nn1 (centres unmarked) [Example 20A, 4-amino-5-(1-isopropyl-1H-1,2,3-triazol-4-yl)-5-methyl-2-(8-(3,3,4,4,4-pentafluorobutyl)-[1,2,4]triazolo[1,5-a]pyrazin-6-yl)-5H-pyrrolo[2,3-d]pyrimidin-6(7H)-one] | 176 nM | – |
| CC1(c2ccc(F)cn2)C(=O)Nc2nc(-c3cn4ncnc4c(CCCC(F)(F)F)n3)nc(N)c21 (centres unmarked) [Example 22B, 4-amino-5-(5-fluoropyridin-2-yl)-5-methyl-2-(8-(4,4,4-trifluorobutyl)-[1,2,4]triazolo[1,5-a]pyrazin-6-yl)-5H-pyrrolo[2,3-d]pyrimidin-6(7H)-one] | 38.3 nM | – |
| C[C@@]1(c2ccc(F)cc2)C(=O)Nc2nc(-c3cn4ncnc4c(CCCC(F)(F)F)n3)nc(N)c21 [Example 23A, (S)-4-amino-5-(4-fluorophenyl)-5-mclhyl-2-(S-(4,4,4-trifluorobutyl)-[1,2,4]triazolo[1,5-a]pyrazin-6-yl)-5,7-dihydro-6H-pyrrolo[2,3-d]pyrimidin-6-one] | 29.6 nM | – |
| CC1(c2ccc(C(F)(F)F)cc2)C(=O)Nc2nc(-c3cn4ncnc4c(CCCC(F)(F)F)n3)nc(N)c21 (centres unmarked) [Example 24B, 4-amino-5-methyl-2-(8-(4,4,4-trifluorobutyl)-[1,2,4]triazolo[1,5-a]pyrazin-6-yl)-5-(4-(trifluoromethyl)phenyl)-5H-pyrrolo[2,3-d]pyrimidin-6(7H)-one] | 27.1 nM | – |
| CC1(c2ccc(C(F)(F)F)cn2)C(=O)Nc2nc(-c3cn4ncnc4c(CCCC(F)(F)F)n3)nc(N)c21 (centres unmarked) [Example 25B, 4-amino-5-methyl-2-(8-(4,4,4-trifluorobutyl)-[1,2,4]triazolo[1,5-a]pyrazin-6-yl)-5-(5-(trifluoromethyl)pyridin-2-yl)-5H-pyrrolo[2,3-d]pyrimidin-6(7H)-one] | 27 nM | – |
| CC1(c2ccc(Cl)cn2)C(=O)Nc2nc(-c3cn4ncnc4c(CCCC(F)(F)F)n3)nc(N)c21 (centres unmarked) [Example 26A, 4-amino-5-(5-chloropyridin-2-yl)-5-methyl-2-(8-(4,4,4-trifluorobutyl)-[1,2,4]triazolo[1,5-a]pyrazin-6-yl)-5H-pyrrolo[2,3-d]pyriniidin-6(7H)-one] | 27.8 nM | – |
